From US9045445B2, “Glycine transporter-1 inhibitors, methods of making them, and uses thereof” (Albany Molecular Research, Inc., priority 2010, dated 2015)
Where a name gives a salt, the structure may show the parent alone. Read-outs that look alike come from different tables or passages of the source.

How the values were obtained:
[1] = target: T1, glycine transporter-2 (GlyT-2) (Homo sapiens, UniProt Q9Y345); assay: [14C]glycine uptake assay in HEK-GlyT-2 transfected cells; assay type: cell-based; details: HEK-GlyT-2 cells
T1 construct: expressed in transfected cells
T1 sequence (Q9Y345 1-797): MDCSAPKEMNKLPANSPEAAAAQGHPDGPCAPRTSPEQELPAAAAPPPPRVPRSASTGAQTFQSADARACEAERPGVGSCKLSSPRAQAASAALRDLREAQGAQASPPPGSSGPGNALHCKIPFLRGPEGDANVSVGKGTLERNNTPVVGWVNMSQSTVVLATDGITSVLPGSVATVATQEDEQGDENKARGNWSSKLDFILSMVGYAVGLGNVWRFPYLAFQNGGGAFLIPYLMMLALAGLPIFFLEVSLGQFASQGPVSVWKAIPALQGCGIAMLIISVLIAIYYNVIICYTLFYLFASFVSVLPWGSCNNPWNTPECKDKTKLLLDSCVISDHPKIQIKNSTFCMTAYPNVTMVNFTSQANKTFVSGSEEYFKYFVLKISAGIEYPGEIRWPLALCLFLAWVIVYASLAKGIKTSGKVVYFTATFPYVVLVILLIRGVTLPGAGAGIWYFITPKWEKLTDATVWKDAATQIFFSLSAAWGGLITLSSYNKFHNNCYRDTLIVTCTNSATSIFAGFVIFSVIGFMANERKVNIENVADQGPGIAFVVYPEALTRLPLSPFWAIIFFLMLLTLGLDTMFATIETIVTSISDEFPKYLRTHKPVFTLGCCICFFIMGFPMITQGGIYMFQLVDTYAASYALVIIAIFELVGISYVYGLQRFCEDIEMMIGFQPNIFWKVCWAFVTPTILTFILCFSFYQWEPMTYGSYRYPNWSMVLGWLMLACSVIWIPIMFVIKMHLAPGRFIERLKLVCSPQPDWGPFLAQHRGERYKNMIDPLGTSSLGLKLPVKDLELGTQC

[2] = target: T2, glycine transporter-1 (GlyT-1) (Homo sapiens, UniProt P48067); assay: [14C]glycine uptake assay in JAR cells endogenously expressing GlyT-1 (scintillation proximity); assay type: cell-based
T2 construct: JAR cells (ATCC#HTB-144), which endogenously express GlyT-1; host or cells: JAR human choriocarcinoma cells
T2 sequence (P48067 1-706): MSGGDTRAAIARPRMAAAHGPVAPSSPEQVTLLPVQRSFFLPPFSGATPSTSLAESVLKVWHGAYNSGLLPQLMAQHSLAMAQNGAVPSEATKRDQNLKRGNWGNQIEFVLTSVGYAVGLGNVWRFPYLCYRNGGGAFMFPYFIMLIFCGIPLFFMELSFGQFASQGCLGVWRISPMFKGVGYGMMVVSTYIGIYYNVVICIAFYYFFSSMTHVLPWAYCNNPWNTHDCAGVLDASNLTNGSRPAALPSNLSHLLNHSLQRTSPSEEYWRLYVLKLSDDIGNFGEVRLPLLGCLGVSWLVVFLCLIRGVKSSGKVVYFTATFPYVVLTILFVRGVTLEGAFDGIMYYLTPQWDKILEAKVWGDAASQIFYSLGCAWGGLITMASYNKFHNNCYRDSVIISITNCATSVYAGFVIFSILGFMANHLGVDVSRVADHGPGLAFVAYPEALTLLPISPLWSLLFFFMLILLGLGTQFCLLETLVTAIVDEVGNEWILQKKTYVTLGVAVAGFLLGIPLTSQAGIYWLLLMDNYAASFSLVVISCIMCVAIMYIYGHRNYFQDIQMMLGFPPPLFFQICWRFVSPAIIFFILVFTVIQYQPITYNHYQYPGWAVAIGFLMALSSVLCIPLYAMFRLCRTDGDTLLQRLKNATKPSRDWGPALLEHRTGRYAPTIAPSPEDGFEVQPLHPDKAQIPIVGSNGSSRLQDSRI
Procedure, shortened: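 Human choriocarcinoma JAR cells (endogenous GlyT-1) attached overnight, then pre-incubated 10 min at room temperature with compound in pH 7.4 Hepes uptake buffer containing 5 mM alanine and 0.75% DMSO. Uptake of 5 μM [14C]glycine over 3 h at 37 °C read by scintillation proximity; IC50 from four-parameter fit of nine-point curves.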

[3] = JAR cells, [14C]glycine 5 μM, 3 hour incubation, read-out: GlyT-1 IC50

Row | SMILES | IC50 [1] [nM] | IC50 [2, 3] [nM] | IC50 ([2]; GlyT-1 IC50 (nM)) [nM]
1 | CCCS(=O)(=O)N1CCN(C2(CNC(=O)c3ccc(Cl)cc3C(F)(F)F)CCC(F)(F)CC2)CC1 [compound 245, 4-Chloro-N-((4,4-difluoro-1-(4-(propylsulfonyl)piperazin-1-yl)cyclohexyl)methyl)-2-(trifluoromethyl)benzamide Hydrochloride] | > 75000 | 18 | –
2 | CCCS(=O)(=O)N1CCN(C2(CNC(=O)c3c(C)cc(F)cc3OC)CCOCC2)CC1 [compound 121, 4-Fluoro-2-methoxy-6-methyl-N-((4-(4-(propylsulfonyl)piperazin-1-yl)tetrahydro-2H-pyran-4-yl)methyl)benzamide Hydrochloride] | > 45000 | 191 | –
3 | CCCS(=O)(=O)N1CCN(C2(CNC(=O)c3ccc(OC(F)(F)F)cc3)CCCCCC2)CC1 [compound 62, N-((1-(4-(Propylsulfonyl)piperazin-1-yl)cycloheptyl)methyl)-4-(trifluoromethoxy) benzamide Hydrochloride] | 3640 | 81 | –
4 | CCCS(=O)(=O)N1CCN(C2(CNC(=O)c3cccc(C(F)(F)F)c3Cl)CCCCC2)CC1 [compound 22, 2-Chloro-N-((1-(4-(propylsulfonyl)piperazin-1-yl)cyclohexyl)methyl)-3-(trifluoromethyl) benzamide Hydrochloride] | 41300 | – | 77
5 | CCCS(=O)(=O)N1CCN(C2(CNC(=O)c3cccc(OC)c3)CCCCC2)CC1 [compound 29, 3-Methoxy-N-((1-(4-(propylsulfonyl)piperazin-1-yl)cyclohexyl)methyl) benzamide Hydrochloride] | > 75000 | 766 | –
6 | CCCS(=O)(=O)N1CCN(C2(CNC(=O)c3c(C(F)(F)F)ccc(Cl)c3F)CCCCC2)CC1 [compound 5, 3-Chloro-2-fluoro-N-((1-(4-(propylsulfonyl)piperazin-1-yl)cyclohexyl)methyl)-6-(trifluoromethyl)benzamide Hydrochloride] | ≥ 75000 | 43 | –
7 | CCCS(=O)(=O)N1CCN(C2(CNC(=O)c3c(N)cccc3F)CCCCC2)CC1 [compound 41, 2-Amino-6-fluoro-N-((1-(4-(propylsulfonyl)piperazin-1-yl)cyclohexyl)methyl) benzamide Hydrochloride] | > 75000 | 71 | –
8 | Cn1cc(S(=O)(=O)N2CCN(C3(CNC(=O)c4c(F)cccc4F)CCOCC3)CC2)nn1 [compound 128, 2,6-Difluoro-N-((4-(4-(1-methyl-1H-1,2,3-triazol-4-ylsulfonyl)piperazin-1-yl)tetrahydro-2H-pyran-4-yl)methyl)benzamide Hydrochloride] | > 75000 | 83 | –
9 | CCCS(=O)(=O)N1CCN(C2(CNC(=O)c3ccccc3C(F)(F)F)CCCCC2)CC1 [compound 50, N-((1-(4-(Propylsulfonyl)piperazin-1-yl)cyclohexyl)methyl)-2-(trifluoromethyl)benzamide Hydrochloride] | > 75000 | 48 | –
10 | COc1cc(F)cc(SC)c1C(=O)NCC1(N2CCN(S(=O)(=O)c3cn(C)nn3)CC2)CCCC1 [compound 113, 4-Fluoro-2-methoxy-N-((1-(4-(1-methyl-1H-1,2,3-triazol-4-ylsulfonyl)piperazin-1-yl)cyclopentyl)methyl)-6-(methylthio)benzamide Hydrochloride] | > 75000 | 3 | –
11 | COc1cc(F)cc(C)c1C(=O)NCC1(N2CCN(S(=O)(=O)CC3CC3)CC2)CCCCC1 [compound 79, N-((1-(4-(Cyclopropylmethyl-sulfonyl)piperazin-1-yl)cyclohexyl)methyl)-4-fluoro-2-methoxy-6-methylbenzamide Hydrochloride] | > 75000 | 29 | –
12 | Cn1cc(S(=O)(=O)N2CCN(C3(CNC(=O)c4c(F)cccc4F)CCCC3)CC2)nn1 [compound 108, 2,6-Difluoro-N-((1-(4-(1-methyl-1H-1,2,3-triazol-4-ylsulfonyl)piperazin-1-yl)cyclopentyl)methyl) benzamide Hydrochloride] | > 75000 | 55 | –
